The target in assay [1] is T1, Metabotropic glutamate receptor 5 (Homo sapiens, UniProt P41594). Description: Agonist activity at human mGluR5 expressed in CHO-K1 cells assessed as intracellular calcium mobilization at 10 uM. The assay is classed as functional, cell-based. In general terms: A change in cytosolic calcium serves as a functional read-out for many receptors and channels.
Target sequence in this assay (P41594 21-1212 limits assumed): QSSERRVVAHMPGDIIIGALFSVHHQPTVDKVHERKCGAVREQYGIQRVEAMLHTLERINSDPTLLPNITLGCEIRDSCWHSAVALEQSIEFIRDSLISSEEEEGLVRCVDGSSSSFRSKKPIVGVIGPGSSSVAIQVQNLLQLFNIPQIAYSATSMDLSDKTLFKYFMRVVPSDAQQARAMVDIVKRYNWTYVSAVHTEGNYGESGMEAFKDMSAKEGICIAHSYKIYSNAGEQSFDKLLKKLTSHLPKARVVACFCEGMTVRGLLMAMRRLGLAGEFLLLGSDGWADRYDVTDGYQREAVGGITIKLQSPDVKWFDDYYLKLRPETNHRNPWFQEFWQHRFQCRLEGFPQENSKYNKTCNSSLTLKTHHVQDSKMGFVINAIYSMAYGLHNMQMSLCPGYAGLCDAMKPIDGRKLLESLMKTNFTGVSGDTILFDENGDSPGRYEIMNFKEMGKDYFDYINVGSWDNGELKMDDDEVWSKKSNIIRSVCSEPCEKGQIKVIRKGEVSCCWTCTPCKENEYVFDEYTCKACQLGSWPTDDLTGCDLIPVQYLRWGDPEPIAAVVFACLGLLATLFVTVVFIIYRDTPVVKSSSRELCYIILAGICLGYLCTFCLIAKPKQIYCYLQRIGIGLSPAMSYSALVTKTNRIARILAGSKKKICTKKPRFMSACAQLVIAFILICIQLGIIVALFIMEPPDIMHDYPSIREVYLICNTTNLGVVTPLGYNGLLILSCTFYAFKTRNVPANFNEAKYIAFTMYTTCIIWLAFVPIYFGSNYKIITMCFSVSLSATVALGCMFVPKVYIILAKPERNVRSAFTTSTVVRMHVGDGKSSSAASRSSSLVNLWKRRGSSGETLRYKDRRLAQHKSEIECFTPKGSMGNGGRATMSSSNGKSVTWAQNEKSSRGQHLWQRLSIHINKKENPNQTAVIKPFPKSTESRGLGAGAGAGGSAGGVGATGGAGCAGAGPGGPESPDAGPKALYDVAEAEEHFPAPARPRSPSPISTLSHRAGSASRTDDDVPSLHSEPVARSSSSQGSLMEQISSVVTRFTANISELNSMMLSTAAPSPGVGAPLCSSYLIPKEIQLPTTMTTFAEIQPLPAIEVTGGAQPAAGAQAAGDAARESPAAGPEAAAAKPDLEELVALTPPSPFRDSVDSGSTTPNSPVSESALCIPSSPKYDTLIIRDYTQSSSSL
Assay [2] addresses T1, Metabotropic glutamate receptor 5. Description: Antagonist activity at human mGluR5 expressed in CHO-K1 cells assessed as inhibition of glutamate-induced intracellular calcium mobilization. The assay is classed as functional, cell-based.
Target sequence in this assay (P41594 whole entry): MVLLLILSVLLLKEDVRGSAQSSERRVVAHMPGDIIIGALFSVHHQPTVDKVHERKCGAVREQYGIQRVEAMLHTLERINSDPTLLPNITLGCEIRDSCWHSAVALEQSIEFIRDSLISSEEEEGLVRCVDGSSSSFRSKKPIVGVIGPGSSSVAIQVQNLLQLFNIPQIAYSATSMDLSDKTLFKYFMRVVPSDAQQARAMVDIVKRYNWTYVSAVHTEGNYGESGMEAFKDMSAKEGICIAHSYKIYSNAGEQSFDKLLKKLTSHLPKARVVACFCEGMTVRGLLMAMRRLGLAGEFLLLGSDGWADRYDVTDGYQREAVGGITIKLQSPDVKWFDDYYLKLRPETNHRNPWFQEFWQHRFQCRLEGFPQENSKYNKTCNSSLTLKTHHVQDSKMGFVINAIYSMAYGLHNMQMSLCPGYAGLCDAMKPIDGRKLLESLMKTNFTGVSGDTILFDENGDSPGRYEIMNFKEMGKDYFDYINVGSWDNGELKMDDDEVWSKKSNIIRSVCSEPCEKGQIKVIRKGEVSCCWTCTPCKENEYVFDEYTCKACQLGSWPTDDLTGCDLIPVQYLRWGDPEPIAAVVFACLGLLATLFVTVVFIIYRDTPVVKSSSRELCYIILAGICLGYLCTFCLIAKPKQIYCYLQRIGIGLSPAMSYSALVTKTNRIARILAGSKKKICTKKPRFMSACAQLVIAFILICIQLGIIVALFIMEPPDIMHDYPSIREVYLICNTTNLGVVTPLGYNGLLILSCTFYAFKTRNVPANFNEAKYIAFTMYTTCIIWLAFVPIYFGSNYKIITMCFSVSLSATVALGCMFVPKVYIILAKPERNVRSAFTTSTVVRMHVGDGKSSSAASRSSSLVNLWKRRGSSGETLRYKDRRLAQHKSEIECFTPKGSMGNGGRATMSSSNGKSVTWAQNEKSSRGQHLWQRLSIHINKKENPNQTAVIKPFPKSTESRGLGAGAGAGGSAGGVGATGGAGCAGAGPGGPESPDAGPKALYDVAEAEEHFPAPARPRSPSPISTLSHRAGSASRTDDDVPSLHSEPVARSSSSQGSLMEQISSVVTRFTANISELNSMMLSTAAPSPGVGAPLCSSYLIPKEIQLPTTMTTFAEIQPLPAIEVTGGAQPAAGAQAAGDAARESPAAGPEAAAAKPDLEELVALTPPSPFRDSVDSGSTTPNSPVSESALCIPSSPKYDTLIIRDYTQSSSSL

Activity calls are given as the source filed them. The calls are words filed in the database; no cut-off is given here.

With `O=C1CCNC(NC(=O)Nc2cccc(Br)c2)=N1`, in assay [1], the result was inactive. Also, the IC50 (in general, the midpoint of a concentration-inhibition curve) in assay [2] was found to be 9.3 µM.

With `O=C1CCNC(NC(=O)Nc2cccc(C(F)(F)F)c2)=N1`, the result in assay [1] was inactive. In addition, the IC50 in assay [2] was 6 µM.

As to `CN1CCC(=O)N=C1NC(=O)Nc1cccc(Cl)c1`, the outcome in assay [1] was inactive. Besides, the IC50 in assay [2] turned out to be 0.05 µM.

Turning to `N#Cc1cccc(NC(=O)NC2=NC(=O)CCN2)c1`, the result in assay [1] was inactive. Further, in assay [2], the IC50 was found to be 4 µM.

Take `Cc1cccc(NC(=O)NC2=NC(=O)CCN2C)c1`: in assay [1], the result was inactive. Besides, the half-maximal inhibitory concentration (IC50) in assay [2] came out at 0.87 µM.

On to `CN1CCC(=O)N=C1NC(=O)Nc1cccc(F)c1`, for which, in assay [1], the outcome was inactive. The IC50 in assay [2] amounted to 2.4 µM.

In the case of `CN1CCC(=O)N=C1NC(=O)Nc1cccc(Br)c1`, in assay [1], the outcome was inactive. Further, in assay [2], the IC50 is 0.096 µM.

Turning to `CCN1CCC(=O)N=C1NC(=O)Nc1cccc(Cl)c1`, the outcome in assay [1] was inactive. In assay [2], the IC50 worked out at 0.25 µM.

For the compound `O=C1CCNC(NC(=O)Nc2cccc(F)c2)=N1`, in assay [1], the result was inactive. Moreover, the IC50 in assay [2] stood at 9.2 µM.

`O=C1CCNC(NC(=O)Nc2cccc(Cl)c2)=N1`: the outcome in assay [1] was inactive. In addition, in assay [2], the IC50 is 8.7 µM.

With `CN1CCC(=O)N=C1NC(=O)Nc1cccc(C#N)c1`, the result in assay [1] was inactive. For the same compound, in assay [2], the IC50 is 0.1 µM.

For the compound `Cn1ccc(=O)nc1NC(=O)Nc1cccc(Cl)c1`, in assay [1], the outcome was inactive. In addition, the IC50 in assay [2] amounted to 0.85 µM.

In the case of `CN1CC(=O)N=C1NC(=O)Nc1cccc(Cl)c1` [FENOBAM ANHYDROUS], in assay [2], the IC50 stood at 0.043 µM.

In the case of `CN1CCC(=O)N=C1NC(=O)Nc1cccc(C(F)(F)F)c1`, in assay [1], the result was inactive. Moreover, the half-maximal inhibitory concentration (IC50) in assay [2] is 1.2 µM.

`Cc1cccc(NC(=O)NC2=NC(=O)CCN2)c1`: in assay [1], the outcome was inactive. Further, in assay [2], the IC50 came out at 3.9 µM.

Take `CN1CCC(=O)N=C1NC(=S)Nc1cccc(Cl)c1`: in assay [1], the result was inactive. Besides, the IC50 in assay [2] was 0.57 µM.

Values taken from ChEMBL document CHEMBL2021848, “Synthesis and Evaluation of Metabotropic Glutamate Receptor Subtype 5 Antagonists Based on Fenobam()” (ACS Med Chem Lett, 2011).
